Assay results from ChEMBL document CHEMBL4392828, “Structural modification of indomethacin toward selective inhibition of COX-2 with a significant increase in van der Waals contributions” (Bioorg Med Chem, 2019).
The source made the active and inactive calls. The calls are words filed in the database; no cut-off is given here.

Molecular target: T1, Prostaglandin G/H synthase 1 (Ovis aries) (UniProt P05979)
T1 sequence (whole entry): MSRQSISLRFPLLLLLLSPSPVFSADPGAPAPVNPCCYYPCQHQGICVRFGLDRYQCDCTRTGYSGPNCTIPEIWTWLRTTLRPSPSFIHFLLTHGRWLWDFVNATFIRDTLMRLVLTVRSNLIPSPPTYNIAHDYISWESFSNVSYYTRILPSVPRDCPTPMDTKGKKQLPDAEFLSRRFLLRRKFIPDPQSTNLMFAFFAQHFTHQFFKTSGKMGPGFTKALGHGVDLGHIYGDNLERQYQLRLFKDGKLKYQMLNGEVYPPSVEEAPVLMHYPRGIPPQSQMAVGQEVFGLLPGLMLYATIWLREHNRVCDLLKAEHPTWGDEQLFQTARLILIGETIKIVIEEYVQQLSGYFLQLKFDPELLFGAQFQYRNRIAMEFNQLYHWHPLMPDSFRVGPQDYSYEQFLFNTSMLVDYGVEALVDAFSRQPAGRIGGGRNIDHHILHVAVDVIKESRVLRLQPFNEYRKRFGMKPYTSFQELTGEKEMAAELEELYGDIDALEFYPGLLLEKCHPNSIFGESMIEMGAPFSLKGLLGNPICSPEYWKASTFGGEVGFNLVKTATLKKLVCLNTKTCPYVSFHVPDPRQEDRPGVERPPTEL
Test: Inhibition of ovine COX1 assessed as reduction in PGF2alpha production up to 2000 nM using arachidonic acid as substrate incubated for 10 mins by EIA method relative to indomethacin

inhibition: inactive
SMILES: COc1ccc2c(c1)c(CC(=O)O)c(/C=C/C(F)(F)F)n2C(=O)c1ccc(Cl)cc1
